From ChEMBL document CHEMBL5214959, “Synthesis of capuramycin and its analogues via a Ferrier-type I reaction and their biological evaluation” (Bioorg Med Chem, 2022)
pIC50: −log10 of the molar value. In brackets after ≈: the same amount, converted by molar mass.

What was measured:
[1] = target: T1, Phospho-N-acetylmuramoyl-pentapeptide-transferase (Staphylococcus aureus, UniProt P0C1R8); experiment: Inhibition of Staphylococcus aureus MraY assessed as reduction of dansylated lipid I formation using UDP-MurNAc-dansylpentapeptide as substrate incubated for 3 to 4 hrs by fluorescence based analysis
T1 sequence (P0C1R8 whole entry): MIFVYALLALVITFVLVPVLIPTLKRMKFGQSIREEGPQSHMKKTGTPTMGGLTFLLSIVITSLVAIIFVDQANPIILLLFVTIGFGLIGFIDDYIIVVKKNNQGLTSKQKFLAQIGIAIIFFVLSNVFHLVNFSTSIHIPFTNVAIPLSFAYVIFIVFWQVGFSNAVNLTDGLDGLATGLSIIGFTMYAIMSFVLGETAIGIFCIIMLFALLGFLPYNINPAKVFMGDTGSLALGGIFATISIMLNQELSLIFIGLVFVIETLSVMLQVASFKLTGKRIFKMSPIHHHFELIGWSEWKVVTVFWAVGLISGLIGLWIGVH

[2] = test system: Mycobacterium tuberculosis; experiment: Antibacterial activity against Mycobacterium tuberculosis H37Rv incubated for 14 days measured by microplate reader method; assay type: functional; conditions: 336 h, time 14 day
[3] = Antibacterial activity against Mycobacterium abscessus subsp. abscessus ATCC 19977 incubated for 5 days measured by microplate reader method; assay type: functional; conditions: Mycobacteroides abscessus, ATCC 19977, 120 h; time 5 day
[4] = test system: Mycolicibacterium smegmatis; experiment: Antibacterial activity against Mycobacterium smegmatis mc2 155 incubated for 4 days measured by microplate reader method; assay type: functional; conditions: mc2 155, 96 h, time 4 day
[5] = Antibacterial activity against Mycobacterium avium subsp. avium ATCC 25291 incubated for 11 days measured by microplate reader method; assay type: functional; conditions: ATCC 25291, 264 h, time 11 day
[6] = Inhibition of bacterial MraY; set-up: species or system Bacteria
[7] = test system: Mycolicibacterium smegmatis; experiment: Antibacterial activity against Mycobacterium smegmatis; assay type: functional

Row | SMILES | pIC50 [1] | MIC50 [2] | MIC50 [3] | MIC50 [4] | MIC50 [5] | IC50 [6] | MIC [7]
1 | NC(=O)[C@H](O[C@H]1OC(C(=O)N[C@H]2CCCCNC2=O)=C[C@H](O)[C@@H]1O)[C@H]1O[C@@H](n2ccc(=O)[nH]c2=O)[C@H](O)[C@@H]1O | 5.70 | > 32 µg/mL | ≥ 64 µg/mL | 32 µg/mL (≈ 57.6 µM) | 16 µg/mL (≈ 28.8 µM) | – | –
2 | CO[C@H]1[C@@H](O)[C@H](n2ccc(=O)[nH]c2=O)O[C@@H]1[C@H](C#N)O[C@H]1OC(C(=O)N[C@H]2CCCCNC2=O)=C[C@H](O)[C@@H]1O | 4.92 | > 32 µg/mL | > 64 µg/mL | > 32 µg/mL | > 32 µg/mL | – | –
3 | CO[C@H]1[C@@H](O)[C@H](n2ccc(=O)[nH]c2=O)O[C@@H]1[C@H](O[C@H]1OC(C(=O)N[C@H]2CCCCNC2=O)=C[C@H](O)[C@@H]1O)C(N)=O | 5.00 | > 32 µg/mL | ≥ 64 µg/mL | > 32 µg/mL | > 32 µg/mL | – | –
4 | O=C(N[C@H]1CCCCNC1=O)C1=C[C@H](O)[C@H](O)[C@@H](OC[C@H]2O[C@@H](n3ccc(=O)[nH]c3=O)[C@H](O)[C@@H]2O)O1 | 4.12 | > 32 µg/mL | 32 µg/mL (≈ 62.4 µM) | > 32 µg/mL | > 32 µg/mL | – | –
5 | CO[C@H]1[C@@H](O)[C@H](n2ccc(=O)[nH]c2=O)O[C@@H]1[C@@H](O[C@H]1OC(C(=O)N[C@H]2CCCCNC2=O)=C[C@H](O)[C@@H]1O)C(N)=O [CAPURAMYCIN] | 6.48 | 32 µg/mL (≈ 56.2 µM) | 64 µg/mL (≈ 112 µM) | 32 µg/mL (≈ 56.2 µM) | 8 µg/mL (≈ 14 µM) | 0.01 µg/mL (≈ 0.0176 µM) | 6.25 µg/mL (≈ 11 µM)
